# Test results reported in patent US20250147039A1, “Compounds for complexation of rare earth elements and/or s-, p-, d- block metals, their coordination compounds, peptide conjugates, method of their preparation and use thereof” (USTAV ORGANICKE CHEMIE A BIOCHEMIE AV CR V.V.I., priority 2021, published 2025).
# Tests used:
# [1] = pH dependent formation of 1,5- and 1,4-cz-Lig isomers from Lig (pH dependent click-zip) (Chart 13); type: physicochemical; settings: B: 1 day at 80° C.
# [2] = Alkali metal dependent formation of 1,5-cz-Lig and 1,4-cz-Lig isomers from Lig at pH 10.2 (Chart 14); type: physicochemical; settings: Borate/(M^I)2CO3 buffer pH 10.2
# [3] = Formation of 1,5-cz-[Ln(Lig)] from Lig and Ln^III ions (metal dependent click-zip), MOPS/NaOH buffer pH 7.0, analytical HPLC (Charts 1, 2); settings: MOPS/NaOH buffer pH 7.0
# [4] = B: 1 day at 80° C., visible analyte free precipitate
structure (smiles),measurement,setting,value
C#Cc1cccc(CN2CCN(CC(=O)O)CCN(Cc3cc(-c4ccccc4)cc(CN=[N+]=[N-])n3)CCN(CC(=O)O)CC2)n1 [TD647],"conversion to 1,4-cz-Lig isomer","[1]; pH 2.2, 50 mM aq. buffer",6%
same,"conversion to 1,5-cz-Lig isomer","[1]; pH 2.2, 50 mM aq. buffer",88%
same,"conversion to 1,4-cz-Lig isomer","[1]; pH 3.0, 50 mM aq. buffer",6%
same,"conversion to 1,5-cz-Lig isomer","[1]; pH 3.0, 50 mM aq. buffer",69%
same,"conversion to 1,4-cz-Lig isomer","[1]; pH 3.8, 50 mM aq. buffer",6%
same,"conversion to 1,5-cz-Lig isomer","[1]; pH 3.8, 50 mM aq. buffer",22%
same,"conversion to 1,4-cz-Lig isomer","[1]; pH 4.6, 50 mM aq. buffer",5%
same,"conversion to 1,5-cz-Lig isomer","[1]; pH 4.6, 50 mM aq. buffer",13%
same,"conversion to 1,4-cz-Lig isomer","[1]; pH 5.4, 50 mM aq. buffer",6%
same,"conversion to 1,5-cz-Lig isomer","[1]; pH 5.4, 50 mM aq. buffer",12%
same,"conversion to 1,4-cz-Lig isomer","[1]; pH 6.2, 50 mM aq. buffer",12%
same,"conversion to 1,5-cz-Lig isomer","[1]; pH 6.2, 50 mM aq. buffer",11%
same,"conversion to 1,4-cz-Lig isomer","[1]; pH 7.0, 50 mM aq. buffer",23%
same,"conversion to 1,5-cz-Lig isomer","[1]; pH 7.0, 50 mM aq. buffer",19%
same,"conversion to 1,4-cz-Lig isomer","[1]; pH 8.6, 50 mM aq. buffer",32%
same,"conversion to 1,5-cz-Lig isomer","[1]; pH 8.6, 50 mM aq. buffer",26%
same,"conversion to 1,4-cz-Lig isomer","[1]; pH 9.4, 50 mM aq. buffer",17%
same,"conversion to 1,5-cz-Lig isomer","[1]; pH 9.4, 50 mM aq. buffer",60%
same,"conversion to 1,4-cz-Lig isomer","[1]; pH 10.2, 50 mM aq. buffer",5%
same,"conversion to 1,5-cz-Lig isomer","[1]; pH 10.2, 50 mM aq. buffer",80%
same,"conversion to 1,4-cz-Lig isomer, Cs^I",[2]; A: 1 hour at 80° C.,2%
same,"conversion to 1,4-cz-Lig isomer, K^I",[2]; A: 1 hour at 80° C.,2%
same,"conversion to 1,4-cz-Lig isomer, Li^I",[2]; A: 1 hour at 80° C.,0%
same,"conversion to 1,4-cz-Lig isomer, Na^I",[2]; A: 1 hour at 80° C.,1%
same,"conversion to 1,4-cz-Lig isomer, Rb^I",[2]; A: 1 hour at 80° C.,2%
same,"conversion to 1,5-cz-Lig isomer, Cs^I",[2]; A: 1 hour at 80° C.,0%
same,"conversion to 1,5-cz-Lig isomer, K^I",[2]; A: 1 hour at 80° C.,1%
same,"conversion to 1,5-cz-Lig isomer, Li^I",[2]; A: 1 hour at 80° C.,0%
same,"conversion to 1,5-cz-Lig isomer, Na^I",[2]; A: 1 hour at 80° C.,15%
same,"conversion to 1,5-cz-Lig isomer, Rb^I",[2]; A: 1 hour at 80° C.,0%
same,"conversion to 1,4-cz-Lig isomer, Cs^I",[2]; B: 1 day at 80° C.,39%
same,"conversion to 1,4-cz-Lig isomer, K^I",[2]; B: 1 day at 80° C.,40%
same,"conversion to 1,4-cz-Lig isomer, Na^I",[2]; B: 1 day at 80° C.,1%
same,"conversion to 1,4-cz-Lig isomer, Rb^I",[2]; B: 1 day at 80° C.,41%
same,"conversion to 1,5-cz-Lig isomer, Cs^I",[2]; B: 1 day at 80° C.,7%
same,"conversion to 1,5-cz-Lig isomer, K^I",[2]; B: 1 day at 80° C.,10%
same,"conversion to 1,5-cz-Lig isomer, Na^I",[2]; B: 1 day at 80° C.,85%
same,"conversion to 1,5-cz-Lig isomer, Rb^I",[2]; B: 1 day at 80° C.,6%
same,"conversion to 1,4-cz-Lig isomer, Li^I",[2]; [4],2%
same,"conversion to 1,5-cz-Lig isomer, Li^I",[2]; [4],9%
same,"conversion to 1,5-cz-[Ln(Lig)], Ce^III",[3]; after 1 week at 80° C.,50%
same,"conversion to 1,5-cz-[Ln(Lig)], Ce^III",[3]; after 1 hour at 80° C.,1%
same,"conversion to 1,5-cz-[Ln(Lig)], Dy^III",[3]; after 1 week at 80° C.,92%
same,"conversion to 1,5-cz-[Ln(Lig)], Dy^III",[3]; after 1 hour at 80° C.,13%
same,"conversion to 1,5-cz-[Ln(Lig)], Er^III",[3]; after 1 week at 80° C.,95%
same,"conversion to 1,5-cz-[Ln(Lig)], Er^III",[3]; after 1 hour at 80° C.,32%
same,"conversion to 1,5-cz-[Ln(Lig)], Eu^III",[3]; after 1 week at 80° C.,89%
same,"conversion to 1,5-cz-[Ln(Lig)], Eu^III",[3]; after 1 hour at 80° C.,4%
same,"conversion to 1,5-cz-[Ln(Lig)], Gd^III",[3]; after 1 week at 80° C.,92%
same,"conversion to 1,5-cz-[Ln(Lig)], Gd^III",[3]; after 1 hour at 80° C.,5%
same,"conversion to 1,5-cz-[Ln(Lig)], Ho^III",[3]; after 1 week at 80° C.,95%
same,"conversion to 1,5-cz-[Ln(Lig)], Ho^III",[3]; after 1 hour at 80° C.,21%
same,"conversion to 1,5-cz-[Ln(Lig)], La^III",[3]; after 1 week at 80° C.,49%
same,"conversion to 1,5-cz-[Ln(Lig)], La^III",[3]; after 1 hour at 80° C.,1%
same,"conversion to 1,5-cz-[Ln(Lig)], Lu^III",[3]; after 1 week at 80° C.,96%
same,"conversion to 1,5-cz-[Ln(Lig)], Lu^III",[3]; after 1 hour at 80° C.,64%
same,"conversion to 1,5-cz-[Ln(Lig)], Nd^III",[3]; after 1 week at 80° C.,79%
same,"conversion to 1,5-cz-[Ln(Lig)], Nd^III",[3]; after 1 hour at 80° C.,1%
same,"conversion to 1,5-cz-[Ln(Lig)], Pr^III",[3]; after 1 week at 80° C.,69%
same,"conversion to 1,5-cz-[Ln(Lig)], Pr^III",[3]; after 1 hour at 80° C.,1%
same,"conversion to 1,5-cz-[Ln(Lig)], Sm^III",[3]; after 1 week at 80° C.,86%
same,"conversion to 1,5-cz-[Ln(Lig)], Sm^III",[3]; after 1 hour at 80° C.,3%
same,"conversion to 1,5-cz-[Ln(Lig)], Tb^III",[3]; after 1 week at 80° C.,91%
same,"conversion to 1,5-cz-[Ln(Lig)], Tb^III",[3]; after 1 hour at 80° C.,9%
same,"conversion to 1,5-cz-[Ln(Lig)], Tm^III",[3]; after 1 week at 80° C.,96%
same,"conversion to 1,5-cz-[Ln(Lig)], Tm^III",[3]; after 1 hour at 80° C.,48%
same,"conversion to 1,5-cz-[Ln(Lig)], Yb^III",[3]; after 1 week at 80° C.,96%
same,"conversion to 1,5-cz-[Ln(Lig)], Yb^III",[3]; after 1 hour at 80° C.,61%
